Measurements as given in patent publication US20100196885A1, “METHODS OF […] COMPOUNDS FOR USE IN TREATING COPD AND OTHER DISEASES” (priority 2007, published 2010).

How the values were obtained:
[1] = test system: lung elastin degradation; assay: D/I levels in plasma, urine and sputum of COPD patients before and after Tiotropium, by LC/MS; type: in vivo, human
Method: The mass spectrometric method was used for direct measurement of D/I in urine, plasma and sputum as markers of elastin degradation in healthy controls, patients with α1-antitrypsin deficiency (AATD) and non-AATD-related COPD. Preparation of specimens of urine and sputum and measurements by mass spectrometry (LC/MS) were performed as previously described in Ma S, Lieberman S, Turino G M and Lin Y Y: The detection and quantitation of free desmosine and isodesmosine in human urine and their peptide-bound forms in sputum. PNAS 2003, 100:12941-12943, which is incorporated by reference as if recited in full herein. D and I standard (mixed 50% D and 50% I) were purchased from Elastin Products (Owensville, Mich.), and all other reagents were from Sigma (St. Louis, Mo.). MCX cation exchange cartridges (3 ml) were obtained from Waters (Milford, Mass.), and CF1 cellulose powders were purchased from Whatman (Clifton, N.J.).
Urine samples. Twenty-four hour urine samples were collected and analyzed as previously described in Ma S, et al., 2003.
Plasma samples. Plasma samples were obtained after centrifuging venous blood specimens at 2500 r.p.m. for 25 min. Samples were stored at −20 C until used. One ml of plasma and 1 ml of concentrated HCl (37%) were placed in a glass vial. After air in the sample was displaced with a stream of nitrogen, the sample was acid hydrolyzed for 24 hours in 6N HCl. After evaporation to dryness, the residue was dissolved in 2 ml of a mixed solution of n-butanol/acetic acid/6 N HCl (4:1:1, by volume). The sample solution was loaded onto a 3 ml CF1 cartridge. The CF1 cartridge was prepared by introducing 3 ml of the slurry of 5% CF1 cellulose powder in a mixture of n-butanol/acetic acid/water (4:1:1, by volume). The cartridge was washed 3 times with 3 ml of n-butanol/acetic acid/water mixture, and D and I adsorbed in the CF1 cartridge were eluted with 3 ml of water. The eluate was evaporated to dryness under vacuum at 45° C. and the residue was dissolved in 0.1 ml of HPLC mobile phase for LC/MS analysis. For analysis in plasma, samples were processed and measured in duplicate and the results averaged.
Sputum Samples. Sputum samples were processed as previously described in Ma S, et al., 2003 with the following modification: The acid hydrolyzed samples were chromatographed using a CF1 cartridge as described in the treatment of plasma samples. Each sputum sample was processed and measured in duplicate and the results averaged. Sputum was obtained from 3-hour morning collections spontaneously produced. When subjects could not voluntarily produce sputum, sputum induction was induced by 3% saline inhalation for 20 minutes as previously described in Ma S, et al., 2003.
COPD patients have elevated levels of D/I in plasma, urine and sputum, which might respond to prolonged bronchodilation. […] Other anticholinergic bronchodilators were stopped prior to TIO, and other therapies/disease treatments were unchanged for the two months of study. To these patients, 18 mcg TIO was administered each 24 hours. D/I in plasma, urine and sputum were measured by liquid chromatography and mass spectrometry (LC/MS) prior to the study and at one month and two months after the study.

[2] = test system: COPD patients; assay: Spirometry in post-TIO therapy patients; type: in vivo, human; conditions: most post-TIO therapy patients
Method: COPD patients have elevated levels of D/I in plasma, urine and sputum, which might respond to prolonged bronchodilation. To determine if clinical effects of Tiotropium (TIO) affect tissue degradation of the lung in COPD, clinically stable patients with COPD (n=9) not on TIO prior to the study and at one month and a second month after initiating therapy were tested. Other anticholinergic bronchodilators were stopped prior to TIO, and other therapies/disease treatments were unchanged for the two months of study. To these patients, 18 mcg TIO was administered each 24 hours. D/I in plasma, urine and sputum were measured by liquid chromatography and mass spectrometry (LC/MS) prior to the study and at one month and two months after the study.
The improvement in spirometric indices were usually concordant with levels of D/I in patients.

With C[N+]1(C)[C@@H]2C[C@@H](OC(=O)C(O)(c3cccs3)c3cccs3)C[C@H]1[C@@H]1O[C@@H]12 [Tiotropium] the “Significant decreases in D/I levels in plasma (patients showing decrease)” value ([1]; COPD patients, 18 mcg TIO each 24 hours, one and two months, plasma, LC/MS) was 10 out of 12, the “Significant decreases in D/I levels in sputum (patients showing decrease)” value ([1]; COPD patients, 18 mcg TIO each 24 hours, one and two months, sputum, LC/MS) was “all 12 patients” and the “Significant decreases in D/I levels in urine (patients showing decrease)” value ([1]; COPD patients, 18 mcg TIO each 24 hours, one and two months, urine, LC/MS) was 10 out of 12. The “Calculated percentage decreases in D/I levels after TIO treatment, time course” value ([1]; COPD patients, one month vs second month of TIO) was “decreases beginning after one month with further decreases observed in the second month”, the “D/I levels in plasma, urine and sputum after two months of treatment” value ([1]; COPD patients, two months of TIO) was “significant reductions” and the “Lung elastin degradation, overall response from percent decreases in D/I levels” value ([1]; all 12 COPD patients, prolonged TIO treatment) was “some decrease in lung elastin degradation”. For the same molecule, the “Force Vital Capacity (FVC)” value [2] was “significant increase”, the “Forced Expired Volume in 1 second (FEV1)” value [2] was “significant increase” and the “Residual Volume (RV)” value [2] was “decreases”. For the same molecule, the “ratio of FEV1/FVC” value [2] was “significant increase”.
